{"source": "patent US20150105252A1", "about": "“SUBSTITUTED PYRAZOLES AS HERBICIDES” (E I DU PONT DE NEMOURS AND COMPANY, priority 2013, published 2015)", "key": {"windgrass [1]": {"tested_on": "windgrass", "assay": "Test D preemergence", "format": "in vivo, Apera spica-venti", "conditions": "scale 0 to 100", "in_short": "(§1)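 Visual 0–100 control ratings at 14–21 days in a controlled growth environment. Application preemergence onto silt loam or postemergence onto 2–18 cm seedlings, using a non-phytotoxic solvent formulation with surfactant.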"}, "kochia": {"tested_on": "kochia", "assay": "Test D preemergence", "format": "in vivo, Kochia scoparia", "conditions": "scale 0 to 100", "in_short": "as §1"}, "common ragweed": {"tested_on": "common ragweed", "assay": "Test F preemergence", "format": "in vivo, Ambrosia elation", "excerpt": "(§2) Seeds of plant species selected from corn (Zea mays), soybean (Glycine max), velvetleaf (Abutilon theophrasti), lambsquarters (Chenopodium album), wild poinsettia (Euphorbia heterophylla), pigweed, palmer (palmer pigweed, Amaranthus palmeri), common waterhemp (Amaranthus rudis), surinam grass (Brachiaria decumbens), large crabgrass (Digitaria sanguinalis), crabgrass, Brazil (Brazilian crabgrass, Digitaria horizontalis), fall panicum (Panicum dichotomiflorum), giant foxtail (Setaria faberii), green foxtail (Setaria viridis), goosegrass (Eleusine indica), johnsongrass (Sorghum halepense), common ragweed (Ambrosia elation), barnyardgrass (Echinochloa crus-galli), southern sandbur (Cenchrus echinatus), arrowleaf sida (Sida rhombifolia), Italian ryegrass (Lolium multiflorum), dayflower, VA (Virginia (VA) dayflower, Commelina virginica), field bindweed (Convolvulus arvensis), cocklebur (common cocklebur, Xanthium strumarium), morningglory (Ipomoea coccinea), nightshade (eastern black nightshade, Solanum ptycanthum), kochia (Kochia scoparia), yellow nutsedge (Cyperus esculentus), and hairy beggarticks (Bidens pilosa), were planted into a silt loam soil and treated preemergence with test chemicals formulated in a non-phytotoxic solvent mixture which included a surfactant.\n(§3) At the same time, plants from these crop and weed species and also horseweed (Canada horseweed, Conyza canadensis), smartweed (ladysthumb smartweed, Polygonum persicaria), waterhemp_RES1, (ALS & Triazine resistant common waterhemp, Amaranthus rudis), and waterhemp_RES2, (ALS & HPPD resistant common waterhemp, Amaranthus rudis) were treated with postemergence applications of test chemicals formulated in the same manner. Plants ranged in height from 2 to 18 cm for postemergence treatments (1- to 4-leaf stage). Treated plants and controls were maintained in a greenhouse for 14 to 21 days, after which time all species were compared to controls and visually evaluated. Plant response ratings, summarized in Table F, are based on a scale of 0 to 100 where 0 is no effect and 100 is complete control. A dash (-) response means no test result."}, "deadnettle": {"tested_on": "deadnettle", "assay": "Test D postemergence", "format": "in vivo, Lamium amplexicaule", "conditions": "scale 0 to 100", "excerpt": "(§4) Seeds of plant species selected from bluegrass (annual bluegrass, Poa annua), blackgrass (Alopecurus myosuroides), canarygrass (littleseed canarygrass, Phalaris minor), chickweed (common chickweed, Stellaria media), galium (catchweed bedstraw, Galium aparine), bromegrass, downy (downy bromegrass, Bromus tectorum), field poppy (Papaver rhoeas), field violet (Viola arvensis), foxtail, green (green foxtail, Setaria viridis), deadnettle (henbit deadnettle, Lamium amplexicaule), ryegrass, Italian (Italian ryegrass, Lolium multiflorum), kochia (Kochia scoparia), lambsquarters (Chenopodium album), oilseed rape (Brassica napus), pigweed (redroot pigweed, Amaranthus retroflexus), chamomile (scentless chamomile, Matricaria inodora), speedwell (bird's-eye speedwell, Veronica persica), barley, spring (spring barley, Hordeum vulgare), wheat, spring (spring wheat, Triticum aestivum), buckwheat, wild (wild buckwheat, Polygonum convolvulus), mustard, wild (wild mustard, Sinapis arvensis), oat, wild (wild oat, Avena fatua), radish, wild (wild radish, Raphanus raphanistrum), windgrass (Apera spica-venti), Russian thistle (Salsola kali), barley, winter (winter barley, Hordeum vulgare), and wheat, winter (winter wheat, Triticum aestivum) were planted into a silt loam soil and treated preemergence with test chemicals formulated in a non-phytotoxic solvent mixture which included a surfactant.\n(§5) At the same time, these species were planted in pots containing Redi-Earth® planting medium (Scotts Company, 14111 Scottslawn Road, Marysville, Ohio 43041) comprising spaghnum peat moss, vermiculite, wetting agent and starter nutrients and treated with postemergence applications of the test chemicals formulated in the same manner. Plants ranged in height from 2 to 18 cm (1- to 4-leaf stage). Treated plants and controls were maintained in a controlled growth environment for 14 to 21 days after which time all species were compared to controls and visually evaluated. Plant response ratings, summarized in Table D, are based on a scale of 0 to 100 where 0 is no effect and 100 is complete control. A dash (-) response means no test result."}, "bromegrass, downy": {"tested_on": "bromegrass, downy", "assay": "Test D postemergence", "format": "in vivo, Bromus tectorum", "conditions": "scale 0 to 100", "excerpt": "as §4, §5"}, "velvetleaf": {"tested_on": "velvetleaf", "assay": "Test F preemergence", "format": "in vivo, Abutilon theophrasti", "excerpt": "as §2, §3"}, "field violet": {"tested_on": "field violet", "assay": "Test D postemergence", "format": "in vivo, Viola arvensis", "conditions": "scale 0 to 100", "excerpt": "as §4, §5"}, "buckwheat, wild": {"tested_on": "buckwheat, wild", "assay": "Test D preemergence", "format": "in vivo, Polygonum convolvulus", "conditions": "scale 0 to 100", "excerpt": "as §4, §5"}, "windgrass [2]": {"tested_on": "windgrass", "assay": "Test D postemergence", "format": "in vivo, Apera spica-venti", "conditions": "scale 0 to 100", "in_short": "as §1"}, "chamomile": {"tested_on": "chamomile", "assay": "Test D postemergence", "format": "in vivo, Matricaria inodora", "conditions": "scale 0 to 100", "in_short": "as §1"}, "arrowleaf sida": {"tested_on": "arrowleaf sida", "assay": "Test F preemergence", "format": "in vivo, Sida rhombifolia", "in_short": "(§6)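 Planting in silt loam, then preemergence treatment; postemergence treatment in parallel on 1- to 4-leaf seedlings (2–18 cm). Compound carried in a non-phytotoxic solvent mixture with surfactant. Greenhouse, 14–21 days; visual comparison with controls, scored 0 (none) to 100 (full control).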"}, "bluegrass": {"tested_on": "bluegrass", "assay": "Test D postemergence", "format": "in vivo, Poa annua", "conditions": "scale 0 to 100", "in_short": "as §1"}, "yellow nutsedge": {"tested_on": "yellow nutsedge", "assay": "Test F preemergence", "format": "in vivo, Cyperus esculentus", "in_short": "as §6"}, "blackgrass": {"tested_on": "blackgrass", "assay": "Test D postemergence", "format": "in vivo, Alopecurus myosuroides", "conditions": "scale 0 to 100", "excerpt": "as §4, §5"}, "[3]": {"conditions": "Preemergence, 31 g ai/ha, scale 0 to 100"}, "[4]": {"conditions": "Preemergence, 62 g ai/ha, scale 0 to 100"}, "[5]": {"conditions": "Preemergence, 125 g ai/ha, scale 0 to 100"}, "[6]": {"conditions": "preemergence, 8 g ai/ha, scale 0 to 100, 100 is complete control"}, "[7]": {"conditions": "preemergence, 16 g ai/ha, scale 0 to 100, 100 is complete control"}}, "data": [{"smiles": "CCc1cc(C(=O)NCC(F)(F)F)nn1Cc1ccnc(C(F)(F)F)c1", "note": "[Compound 78, 5-ethyl-N-(2,2,2-trifluoroethyl)-1-[[(2-trifluoromethyl)-4-pyridinyl]methyl]-1H-pyrazole-3-carboxamide]", "values": [{"measurement": "Plant response rating, Windgrass", "setting": "windgrass [1]; 31 g ai/ha", "value": 90}, {"measurement": "Plant response rating, Windgrass", "setting": "windgrass [1]; 62 g ai/ha", "value": 100}, {"measurement": "Plant response rating, Windgrass", "setting": "windgrass [1]; 125 g ai/ha", "value": 100}, {"measurement": "Plant response rating, Windgrass", "setting": "windgrass [1]; 250 g ai/ha", "value": 100}, {"measurement": "Plant response rating, Kochia", "setting": "kochia; 31 g ai/ha", "value": 95}, {"measurement": "Plant response rating, Kochia", "setting": "kochia; 62 g ai/ha", "value": 100}, {"measurement": "Plant response rating, Kochia", "setting": "kochia; 125 g ai/ha", "value": 100}, {"measurement": "Plant response rating, Kochia", "setting": "kochia; 250 g ai/ha", "value": 100}, {"measurement": "Plant response rating, Common Ragweed", "setting": "common ragweed; [3]", "value": 90}, {"measurement": "Plant response rating, Common Ragweed", "setting": "common ragweed; [4]", "value": 98}, {"measurement": "Plant response rating, Common Ragweed", "setting": "common ragweed; [5]", "value": 100}, {"measurement": "Plant response rating, Common Ragweed", "setting": "common ragweed; [6]", "value": 0}, {"measurement": "Plant response rating, Common Ragweed", "setting": "common ragweed; [7]", "value": 30}, {"measurement": "Deadnettle plant response rating", "setting": "deadnettle; Postemergence, 31 g ai/ha", "value": 15}, {"measurement": "Deadnettle plant response rating", "setting": "deadnettle; Postemergence, 125 g ai/ha", "value": 35}, {"measurement": "Deadnettle plant response rating", "setting": "deadnettle; Postemergence, 250 g ai/ha", "value": 60}, {"measurement": "Deadnettle plant response rating", "setting": "deadnettle; postemergence, 62 g ai/ha", "value": 20}, {"measurement": "Bromegrass, Downy plant response rating", "setting": "bromegrass, downy; Postemergence, 31 g ai/ha", "value": 10}, {"measurement": "Bromegrass, Downy plant response rating", "setting": "bromegrass, downy; Postemergence, 125 g ai/ha", "value": 20}, {"measurement": "Bromegrass, Downy plant response rating", "setting": "bromegrass, downy; Postemergence, 250 g ai/ha", "value": 25}, {"measurement": "Bromegrass, Downy plant response rating", "setting": "bromegrass, downy; postemergence, 62 g ai/ha", "value": 15}, {"measurement": "Plant response rating, Velvetleaf", "setting": "velvetleaf; [3]", "value": 10}, {"measurement": "Plant response rating, Velvetleaf", "setting": "velvetleaf; [4]", "value": 75}, {"measurement": "Plant response rating, Velvetleaf", "setting": "velvetleaf; [5]", "value": 95}, {"measurement": "Plant response rating, Velvetleaf", "setting": "velvetleaf; [6]", "value": 5}, {"measurement": "Field Violet plant response rating", "setting": "field violet; Postemergence, 31 g ai/ha", "value": 30}, {"measurement": "Field Violet plant response rating", "setting": "field violet; Postemergence, 125 g ai/ha", "value": 60}, {"measurement": "Field Violet plant response rating", "setting": "field violet; Postemergence, 250 g ai/ha", "value": 65}, {"measurement": "Field Violet plant response rating", "setting": "field violet; postemergence, 62 g ai/ha", "value": 40}, {"measurement": "Plant response rating, Buckwheat, Wild", "setting": "buckwheat, wild; 31 g ai/ha", "value": 95}, {"measurement": "Plant response rating, Buckwheat, Wild", "setting": "buckwheat, wild; 62 g ai/ha", "value": 100}, {"measurement": "Plant response rating, Buckwheat, Wild", "setting": "buckwheat, wild; 125 g ai/ha", "value": 100}, {"measurement": "Plant response rating, Buckwheat, Wild", "setting": "buckwheat, wild; 250 g ai/ha", "value": 100}, {"measurement": "Windgrass plant response rating", "setting": "windgrass [2]; Postemergence, 31 g ai/ha", "value": 10}, {"measurement": "Windgrass plant response rating", "setting": "windgrass [2]; Postemergence, 125 g ai/ha", "value": 35}, {"measurement": "Windgrass plant response rating", "setting": "windgrass [2]; Postemergence, 250 g ai/ha", "value": 60}, {"measurement": "Windgrass plant response rating", "setting": "windgrass [2]; postemergence, 62 g ai/ha", "value": 20}, {"measurement": "Chamomile plant response rating", "setting": "chamomile; Postemergence, 31 g ai/ha", "value": 30}, {"measurement": "Chamomile plant response rating", "setting": "chamomile; Postemergence, 125 g ai/ha", "value": 65}, {"measurement": "Chamomile plant response rating", "setting": "chamomile; Postemergence, 250 g ai/ha", "value": 75}, {"measurement": "Chamomile plant response rating", "setting": "chamomile; postemergence, 62 g ai/ha", "value": 50}, {"measurement": "Plant response rating, Arrowleaf Sida", "setting": "arrowleaf sida; [3]", "value": 0}, {"measurement": "Plant response rating, Arrowleaf Sida", "setting": "arrowleaf sida; [4]", "value": 20}, {"measurement": "Plant response rating, Arrowleaf Sida", "setting": "arrowleaf sida; [5]", "value": 35}, {"measurement": "Plant response rating, Arrowleaf Sida", "setting": "arrowleaf sida; [6]", "value": 0}, {"measurement": "Plant response rating, Arrowleaf Sida", "setting": "arrowleaf sida; [7]", "value": 0}, {"measurement": "Bluegrass plant response rating", "setting": "bluegrass; Postemergence, 31 g ai/ha", "value": 10}, {"measurement": "Bluegrass plant response rating", "setting": "bluegrass; Postemergence, 125 g ai/ha", "value": 15}, {"measurement": "Bluegrass plant response rating", "setting": "bluegrass; Postemergence, 250 g ai/ha", "value": 30}, {"measurement": "Bluegrass plant response rating", "setting": "bluegrass; postemergence, 62 g ai/ha", "value": 10}, {"measurement": "Plant response rating, Yellow Nutsedge", "setting": "yellow nutsedge; [3]", "value": 20}, {"measurement": "Plant response rating, Yellow Nutsedge", "setting": "yellow nutsedge; [4]", "value": 70}, {"measurement": "Plant response rating, Yellow Nutsedge", "setting": "yellow nutsedge; [5]", "value": 90}, {"measurement": "Plant response rating, Yellow Nutsedge", "setting": "yellow nutsedge; [6]", "value": 0}, {"measurement": "Plant response rating, Yellow Nutsedge", "setting": "yellow nutsedge; [7]", "value": 0}, {"measurement": "Blackgrass plant response rating", "setting": "blackgrass; Postemergence, 31 g ai/ha", "value": 5}, {"measurement": "Blackgrass plant response rating", "setting": "blackgrass; Postemergence, 125 g ai/ha", "value": 30}, {"measurement": "Blackgrass plant response rating", "setting": "blackgrass; Postemergence, 250 g ai/ha", "value": 65}, {"measurement": "Blackgrass plant response rating", "setting": "blackgrass; postemergence, 62 g ai/ha", "value": 10}]}]}
